Results taken from patent US8912200B2, “Alkynyl substituted pyrimidinyl-pyrroles active as kinases inhibitors” (Nerviano Medical Sciences S.R.L., priority 2011, dated 2014).

How the values were obtained:
[1] = tested on: JAK2 dependent human megakaryoblastic leukemia cell line SET-2; assay: Cell proliferation assay (CellTiter-Glo, 72 hours); type: cell-based; details: Homo sapiens, SET-2 cells
Procedure: The JAK2 dependent human megakaryoblastic leukemia cell line SET-2 (DSMZ, Braunschweig GERMANY) and the JAK2 independent human chronic myelogenous leukaemia cell line K562 (ECACC, Wiltshire, UK) were cultured in RPMI-1640 medium-Glutamax (Gibco BRL, Gaithesburg, Md., USA), supplemented with 10% fetal bovine serum (FBS) at 37° C. and 5% CO2.
Cell Proliferation Assay:
Approximately 5×10^3 cells were plated into 384 microtiter plate wells in 50 μL of growth media with different concentrations of inhibitors. The cells were incubated at 37° C. and 5% CO2 for 72 hours, then the plates were processed using CellTiter-Glo assay (Promega, Madison, Wis., USA) following the manufacturer's instruction. Briefly 25 μL/well reagent solution is added to each well and after 5 minutes shaking the micro-plates are read by Envision luminometer (PerkinElmer, Waltham, Mass., USA).
Data are analyzed by Symix Assay Explorer software (Symix Technologies Inc.) that provides sigmoidal fitting algorithm of the 8 points dilutions curves for IC50 determination.

JAK2 kinase domain = target: T1, JAK2 kinase domain (Homo sapiens, UniProt O60674); assay: Biochemical assay for inhibitors of JAK kinase activity (JAK2, 33P-γ-ATP/dowex resin); details: JAK2 kinase domain 1 nM, 60 μM ATP
T1 construct: commercially available JAK2 kinase domain; purchased Invitrogen, Eugene, Oreg
T1 sequence (O60674 849-1124 limits assumed): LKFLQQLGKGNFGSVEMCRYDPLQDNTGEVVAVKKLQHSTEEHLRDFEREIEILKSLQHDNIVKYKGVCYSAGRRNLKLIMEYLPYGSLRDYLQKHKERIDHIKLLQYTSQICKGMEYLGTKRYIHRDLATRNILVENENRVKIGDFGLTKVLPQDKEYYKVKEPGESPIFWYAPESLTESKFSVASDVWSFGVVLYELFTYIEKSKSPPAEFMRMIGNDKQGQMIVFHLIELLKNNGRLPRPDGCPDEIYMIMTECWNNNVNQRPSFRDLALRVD
From the text: Biochemical Assay for Inhibitors of JAK Kinase Activity
(§1) Specific JAK2, JAK1 or JAK3 peptide substrates are trans-phosphorylated by JAK kinases in the presence of ATP traced with 33P-γ-ATP. At the end of the phosphorylation reaction, the unreacted ATP, cold and radioactive, is captured by an excess of dowex ion exchange resin that eventually settles by gravity to the bottom of the reaction plate. The supernatant is subsequently withdrawn and transferred into a counting plate that is then evaluated by β-counting.
500 g of wet resin (SIGMA, custom prepared resin DOWEX 1×8 200-400 mesh, 2.5 Kg) are weighed out and diluted 2 to 1 in 150 mM sodium formate, pH 3.00. The resin is allowed to settle down overnight and then the supernatant is discarded. After three washes as above over a couple of days, the resin is allowed to settle and two volumes (with respect to the resin volume) of 150 mM sodium formate buffer are added.
Kinase buffer was composed of 50 mM HEPES pH 7.5 containing 10 mM MgCl2, 2.5 mM DTT, 10 μM Na3VO4 and 0.2 mg/mL BSA.
JAK2 Specific Assay Conditions
The JAK2 kinase assay was run with a final enzyme concentration of 1 nM, in the presence of 60 μM ATP, 3 nM 33P-γ-ATP and 64 μM of substrate BioDBn*306 (Aminoacid sequence: LPLDKDYYVVREPGQ—SEQ ID NO: 1). The peptidic substrate was purchased from American Peptide Company (Sunnyvale, Calif.).
(§2) For IC50 determination, test compounds are received as a 1 mM solution in 100% DMSO, distributed into 96 well plates: compounds are then plated into the first column of a microtiter plate (A1 to G1), 100 μL/well.
(§3) An automated station for serial dilutions (Biomek FX, Beckman) is used for producing 1:3 dilutions in 100% DMSO, from line A1 to A10, and for all the compounds in the column. Moreover, 4-5 copies of daughter plates are prepared by reformatting 5 μL of this first set of 100% DMSO dilution plates into 384 deep well-plates: one of these plates with the serial dilutions of test compounds will be thawed the day of the experiments, reconstituted at a 3× concentration with water and used in the IC50 determination assays. In a standard experiment, the highest concentration (3×) of all compounds is 30 μM, while the lowest one is 1.5 nM. Each 384 well-plate will contain at least one curve of the standard inhibitor staurosporine and reference wells (total enzyme activity vs. no enzymatic activity) for the Z′ and signal to background evaluation.
384-well plates, V bottom (test plates) are prepared with 5 μL of the compound dilution (3×) and then placed onto a PlateTrak 12 robotized station (Perkin Elmer; the robot has one 384-tip pipetting head for starting the assay plus one 96-tip head for dispensing the resin) together with one reservoir for the Enzyme mix (3×) and one for the ATP mix (3×). At the start of the run, the robot aspirates 5 μL of ATP mix, makes an air gap inside the tips (3 μl) and aspirates 5 μL of JAK2 mix. The following dispensation into the plates plus 3 cycles of mixing, done by the robot itself, starts the kinase reaction. At this point, the correct concentrations are restored for all the reagents. The robot incubates the plates for 60 minutes at room temperature, and then stops the reaction by pipetting 60 μL of dowex resin suspension into the reaction mix. In order to avoid tip clogging, wide bore tips are used to dispense the resin suspension. Three cycles of mixing are done immediately after the addition of the resin. Another mixing cycle is performed after all the plates are stopped, this time using normal tips: the plates are then allowed to rest for about one hour in order to allow resin sedimentation. At this point, 27 μL of the supernatant are transferred into 384-Optiplates (Perkin-Elmer), with 50 μL of Microscint 40 (Perkin-Elmer); after 5 min of orbital shaking the plates are read on a Perkin-Elmer Top Count radioactivity counter. […]

Lyn full length = target: T2, Lyn full length (Homo sapiens, UniProt P07948); assay: Biochemical assay for inhibitors of Lyn (Src family) kinase activity; details: Lyn full length 1 nM, 25 μM ATP
T2 construct: The assay has been performed using Lyn full length
T2 sequence (P07948 whole entry): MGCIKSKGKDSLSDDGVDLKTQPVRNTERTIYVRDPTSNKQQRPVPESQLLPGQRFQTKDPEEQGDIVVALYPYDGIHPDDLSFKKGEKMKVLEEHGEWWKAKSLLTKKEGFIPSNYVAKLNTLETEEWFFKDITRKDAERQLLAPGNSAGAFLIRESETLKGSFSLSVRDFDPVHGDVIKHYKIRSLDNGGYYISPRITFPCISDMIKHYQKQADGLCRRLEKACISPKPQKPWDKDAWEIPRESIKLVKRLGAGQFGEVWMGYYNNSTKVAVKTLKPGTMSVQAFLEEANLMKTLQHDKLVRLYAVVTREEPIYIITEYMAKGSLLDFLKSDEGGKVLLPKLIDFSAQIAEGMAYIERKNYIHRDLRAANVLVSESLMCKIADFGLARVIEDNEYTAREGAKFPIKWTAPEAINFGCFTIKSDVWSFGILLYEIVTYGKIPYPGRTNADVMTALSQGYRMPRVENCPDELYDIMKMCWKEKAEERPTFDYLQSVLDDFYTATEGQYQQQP
From the text: Biochemical Assay for Inhibitors of Lck and Lyn (Src Family) Kinases Activity
as §1, with “Lck and Lyn” for “JAK2, JAK1 or JAK3 peptide”, “Lck and Lyn” for “JAK”
Lyn Specific Assay Conditions
The assay has been performed using Lyn full length (accession number P07948 of UniProtKB/Swiss-Prot database).
Kinase buffer was composed of 50 mM HEPES pH 7.5 containing 3 mM MgCl2, 1 mM DTT, 3 μM Na3VO4, and 0.2 mg/mL BSA.
The Lyn kinase assay was run with a final enzyme concentration of 1 nM, in the presence of 25 μM ATP, 1.5 nM 33P-γ-ATP and 250 μM of substrate ABI 1 (Aminoacid sequence: EAIYAAPFAKKK—SEQ ID NO: 3). The peptidic substrate was purchased from American Peptide Company (Sunnyvale, Calif.).
as §2, §3
384-well plates, V bottom (test plates) are prepared with 5 μL of the compound dilution (3×) and then placed onto a PlateTrak 12 robotized station (Perkin Elmer; the robot has one 384-tip pipetting head for starting the assay plus one 96-tip head for dispensing the resin) together with one reservoir for the Enzyme mix (3×) and one for the ATP mix (3×). At the start of the run, the robot aspirates 5 μL of ATP mix, makes an air gap inside the tips (3 μl) and aspirates 5 μL of JAK2 mix. The following dispensation into the plates plus 3 cycles of mixing, done by the robot itself, starts the kinase reaction. At this point, the correct concentrations are restored for all the reagents. The robot incubates the plates for 60 minutes at room temperature, and then stops the reaction by pipetting 60 μL of dowex resin suspension into the reaction mix. In order to avoid tip clogging, wide bore tips are used to dispense the resin suspension. Three cycles of mixing are done immediately after the addition of the resin. Another mixing cycle is performed after all the plates are stopped, this time using normal tips: the plates are then allowed to rest for about one hour in order to allow resin sedimentation. At this point, 27 μL of the supernatant are transferred into 384-Optiplates (Perkin-Elmer), with 50 μL of Microscint 40 (Perkin-Elmer); after 5 min of orbital shaking the plates are read on a Perkin-Elmer Top Count radioactivity counter.
Data are analyzed by an internally customized version of the SW package “Assay Explorer” that provides sigmoidal fitting of the ten-dilutions curves for IC50 determination in the secondary assays/hit confirmation routines.

Structure (SMILES)	IC50 [1]	IC50 (JAK2 kinase domain)	IC50 (Lyn full length)
Cc1ccc(Cl)cc1-c1[nH]c(-c2nc(N)ncc2C#Cc2cccc(N)c2)cc1C(N)=O [compound 4, 5-{2-amino-5-[(3-aminophenyl)ethynyl]pyrimidin-4-yl}-2-(5-chloro-2-methylphenyl)-1H-pyrrole-3-carboxamide]	150 nM	1 nM	1 nM
Cc1ccc(Cl)cc1-c1[nH]c(-c2ccnc(N)n2)c(C#Cc2ccc(N3CCC(N4CCCCC4)CC3)cc2)c1C(N)=O [compound 97, 5-(2-Aminopyrimidin-4-yl)-4-{[4-(1,4′-bipiperidin-1′-yl)phenyl]ethynyl}-2-(5-chloro-2-methylphenyl)-1H-pyrrole-3-carboxamide]	740 nM	12 nM	293 nM
Cc1ccc(Cl)cc1-c1[nH]c(-c2nc(N)ncc2C#Cc2cccc(C(=O)N3CCN(C)CC3)c2)cc1C(N)=O [compound 27, 5-[2-Amino-5-({3-[(4-methylpiperazin-1-yl)carbonyl]phenyl}ethynyl)pyrimidin-4-yl]-2-(5-chloro-2-methylphenyl)-1H-pyrrole-3-carboxamide]	580 nM	1 nM	1 nM
Cc1ccc(Cl)cc1-c1[nH]c(-c2ccnc(N)n2)c(C#Cc2ccc(N3CCC(N4CCCC4)CC3)cc2)c1C(N)=O [compound 98, 5-(2-Aminopyrimidin-4-yl)-2-(5-chloro-2-methylphenyl)-4-({4-[4-(pyrrolidin-1-yl)piperidin-1-yl]phenyl}ethynyl)-1H-pyrrole-3-carboxamide]	1640 nM	36 nM	208 nM
Cc1ccc(Cl)cc1-c1[nH]c(-c2nc(N)ncc2C#Cc2cccc(N3CCN(C)CC3)c2)cc1C(N)=O [compound 47, 5-(2-Amino-5-{[3-(4-methylpiperazin-1-yl)phenyl]ethynyl}pyrimidin-4-yl)-2-(5-chloro-2-methylphenyl)-1H-pyrrole-3-carboxamide]	220 nM	3 nM	6 nM
CCc1ccc(Cl)cc1-c1[nH]c(-c2ccnc(N)n2)c(C#Cc2cccc(OC3CCN(C)CC3)c2)c1C(N)=O [compound 102, 5-(2-Aminopyrimidin-4-yl)-2-(5-chloro-2-ethylphenyl)-4-({3-[(1-methylpiperidin-4-yl)oxy]phenyl}ethynyl)-1H-pyrrole-3-carboxamide]	240 nM	1 nM	6 nM
Cc1ccc(Cl)cc1-c1[nH]c(-c2nc(N)ncc2C#Cc2ccc(CN3CCCC3)cc2)cc1C(N)=O [compound 66, 5-(2-Amino-5-{[4-(pyrrolidin-1-ylmethyl)phenyl]ethynyl}pyrimidin-4-yl)-2-(5-chloro-2-methylphenyl)-1H-pyrrole-3-carboxamide]	190 nM	1 nM	1 nM
Cc1ccc(Cl)cc1-c1[nH]c(-c2ccnc(N)n2)c(C#Cc2cccc(N)c2)c1C(N)=O [compound 72, 4-[(3-Aminophenyl)ethynyl]-5-(2-aminopyrimidin-4-yl)-2-(5-chloro-2-methylphenyl)-1H-pyrrole-3-carboxamide]	420 nM	2 nM	10 nM
Cc1ccc(Cl)cc1-c1[nH]c(-c2ccnc(N)n2)c(C#Cc2ccc(N3CCC(N(C)C)CC3)cc2)c1C(N)=O [compound 96, 5-(2-Aminopyrimidin-4-yl)-2-(5-chloro-2-methylphenyl)-4-({4-[4-(dimethylamino)piperidin-1-yl]phenyl}ethynyl)-1H-pyrrole-3-carboxamide]	210 nM	4 nM	93 nM
Cc1ccc(Cl)cc1-c1[nH]c(-c2ccnc(N)n2)c(C#Cc2ccc(N3CCN(C)CC3)cc2)c1C(N)=O [compound 83, 5-(2-Aminopyrimidin-4-yl)-2-(5-chloro-2-methylphenyl)-4-{[4-(4-methylpiperazin-1-yl)phenyl]ethynyl}-1H-pyrrole-3-carboxamide]	510 nM	8 nM	9 nM
Cc1ccc(Cl)cc1-c1[nH]c(-c2ccnc(N)n2)c(C#Cc2cccc(OC3CCN(C)CC3)c2)c1C(N)=O [compound 91, 5-(2-Aminopyrimidin-4-yl)-2-(5-chloro-2-methylphenyl)-4-({3-[(1-methylpiperidin-4-yl)oxy]phenyl}ethynyl)-1H-pyrrole-3-carboxamide]	260 nM	5 nM	114 nM
Cc1ccc(Cl)cc1-c1[nH]c(-c2nc(N)ncc2C#Cc2cccc(NCCN)c2)cc1C(N)=O [compound 63, 5-[2-Amino-5-({3-[(2-aminoethyl)amino]phenyl}ethynyl)pyrimidin-4-yl]-2-(5-chloro-2-methylphenyl)-1H-pyrrole-3-carboxamide]	100 nM	3 nM	5 nM
Cc1ccc(Cl)cc1-c1[nH]c(-c2nc(N)ncc2C#Cc2ccccc2N)cc1C(N)=O [compound 6, 5-{2-Amino-5-[(2-aminophenyl)ethynyl]pyrimidin-4-yl}-2-(5-chloro-2-methylphenyl)-1H-pyrrole-3-carboxamide]	240 nM	1 nM	3 nM
